Patent publication US20240124491A1, “METHODS AND COMPOUNDS FOR TREATING FRIEDREICH'S ATAXIA” (Design Therapeutics, Inc., priority 2021, published 2024)

system: human FXN; assay: EC50 assay: FXN mRNA expression by qRT-PCR in GM15850 cells after 48 hrs compound treatment; assay type: cell-based; details: 48 hrs incubation, hFXN expression normalized to hGAPDH (qRT-PCR), read-out: EC50 WT (nM, 48 hr)
Outline: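 FXN transcript, normalized to GAPDH by TaqMan qRT-PCR, read out after 48 hrs of compound on GM15850 cells plated at 150,000 per well. Dosing used five 3-fold steps from 150 nM final, vehicle 0.01% DMSO.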

**Q.** For C=C(C)c1ccc(Oc2c(C)cc(F)cc2C)c(-c2cn(C)c(=O)c3[nH]c(C(=O)Nc4ccc(OCCOCCOCCOCCOCCOCCOCCOCCOCCNC(=O)CCNC(=O)c5nc(NC(=O)CCNC(=O)c6cc(NC(=O)c7nc(NC(=O)CCNC(=O)c8cc(NC(=O)c9nccn9C)cn8C)cn7C)cn6C)cn5C)cc4)cc23)c1 [Compound 197, N-(5-{[2-({2-[(2-{[26-(4-{14-[2-(4-fluoro-2,6-dimethylphenoxy)-5-(prop-1-en-2-yl)phenyl]-6-methyl-7-oxo-1H-pyrrolo[2,3-c]pyridine-2-amido}phenoxy)-3,6,9,12,15,18,21,24-octaoxahexacosan-1-yl]carbamoyl]ethyl)carbamoyl]-1-methylimidazol-4-yl]carbamoyl)ethyl]carbamoyl]-1-methylpyrrol-3-yl)-1-methyl-4-(3-{[1-methyl-4-(1-methylimidazole-2-amido)pyrrol-2-yl]formamido]propanamido)imidazole-2-carboxamide], which EC50 is on record?
**A.** Its EC50 is 100 to 500 nM.

same assay, conditions: Homo sapiens, 48 hrs incubation, hFXN expression normalized to hGAPDH (qRT-PCR), read-out: EC50 WT (nM, 48 hr)

**Q.** With Cc1sc2c(c1C)C(c1ccc(Cl)cc1)=N[C@@H](CC(=O)NC1CCN(C(C)(C)C#CC#CC3CCN(CCOCCOCCOCCOCCOCCNC(=O)CCNC(=O)c4nc(NC(=O)CCNC(=O)c5cc(NC(=O)c6nc(NC(=O)CCNC(=O)c7cc(NC(=O)c8nccn8C)cn7C)cn6C)cn5C)cn4C)CC3)CC1)c1nnc(C)n1-2 [Compound 151] as the molecule, how does the EC50 read?
**A.** Its EC50 is < 100 nM.

**Q.** With Cc1sc2c(c1C)C(c1ccc(Cl)cc1)=N[C@@H](CC(=O)NC1CCN(CC#CC#CC3CCN(CCOCCOCCNC(=O)CCNC(=O)c4nc(NC(=O)CCNC(=O)c5cc(NC(=O)c6nc(NC(=O)CCNC(=O)c7cc(NC(=O)c8nccn8C)cn7C)cn6C)cn5C)cn4C)CC3)CC1)c1nnc(C)n1-2 [Compound 155] as the molecule, how does the EC50 read?
**A.** Its EC50 is < 100 nM.

**Q.** How did the EC50 turn out when Cc1sc2c(c1C)C(c1ccc(Cl)cc1)=N[C@@H](CC(=O)NC1CCN(CC#CC#CC3CCN(CCOCCOCCOCCNC(=O)CCNC(=O)c4nc(NC(=O)CCNC(=O)c5cc(NC(=O)c6nc(NC(=O)CCNC(=O)c7cc(NC(=O)c8nccn8C)cn7C)cn6C)cn5C)cn4C)CC3)CC1)c1nnc(C)n1-2 [Compound 156] was run?
**A.** Its EC50 is < 100 nM.

**Q.** For Cc1sc2c(c1C)C(c1ccc(Cl)cc1)=N[C@@H](CC(=O)NC1CCN(CC#CC#CC3CCN(CCOCCOCCOCCOCCOCCOCCOCCNC(=O)CCNC(=O)c4nc(NC(=O)CCNC(=O)c5cc(NC(=O)c6nc(NC(=O)CCNC(=O)c7cc(NC(=O)c8nccn8C)cn7C)cn6C)cn5C)cn4C)CC3)CC1)c1nnc(C)n1-2 [Compound 157], which EC50 is on record?
**A.** The EC50 was < 100 nM.

**Q.** Cc1cc(F)cc(C)c1Oc1ccc(C(C)(C)O)cc1-c1cn(C)c(=O)c2[nH]c(C(=O)NC3CCN(CC#CC#CC4CCN(CCOCCOCCOCCOCCOCCNC(=O)CCNC(=O)c5nc(NC(=O)CCNC(=O)c6cc(NC(=O)c7nc(NC(=O)CCNC(=O)c8cc(NC(=O)c9nccn9C)cn8C)cn7C)cn6C)cn5C)CC4)CC3)cc12 [Compound 158] was tested. Which EC50 did it give?
**A.** Its EC50 is < 100 nM.

**Q.** For Cc1sc2c(c1C)C(c1ccc(Cl)cc1)=N[C@@H](CC(=O)NC1CCN(C(C)(C)C#CC#CCNCCOCCOCCOCCOCCOCCNC(=O)CCNC(=O)c3nc(NC(=O)CCNC(=O)c4cc(NC(=O)c5nc(NC(=O)CCNC(=O)c6cc(NC(=O)c7nccn7C)cn6C)cn5C)cn4C)cn3C)CC1)c1nnc(C)n1-2 [Compound 159], which EC50 is on record?
**A.** The EC50 was < 100 nM.

**Q.** Cc1sc2c(c1C)C(c1ccc(Cl)cc1)=N[C@@H](CC(=O)N1CCC(C#CC#CC3CCN(CCOCCNC(=O)CCNC(=O)c4nc(NC(=O)CCNC(=O)c5cc(NC(=O)c6nc(NC(=O)CCNC(=O)c7cc(NC(=O)c8nccn8C)cn7C)cn6C)cn5C)cn4C)CC3)CC1)c1nnc(C)n1-2 [Compound 160] was tested. Which EC50 did it give?
**A.** The EC50 was < 100 nM.

**Q.** Which EC50 does the source give for Cc1sc2c(c1C)C(c1ccc(Cl)cc1)=N[C@@H](CC(=O)N1CCC(C#CC#CC3CCN(CCNC(=O)CCNC(=O)c4nc(NC(=O)CCNC(=O)c5cc(NC(=O)c6nc(NC(=O)CCNC(=O)c7cc(NC(=O)c8nccn8C)cn7C)cn6C)cn5C)cn4C)CC3)CC1)c1nnc(C)n1-2 [Compound 161] here?
**A.** Its EC50 is < 100 nM.

**Q.** For Cc1sc2c(c1C)C(c1ccc(Cl)cc1)=N[C@@H](CC(=O)N1CCC(C#CC#CCNCCOCCNC(=O)CCNC(=O)c3nc(NC(=O)CCNC(=O)c4cc(NC(=O)c5nc(NC(=O)CCNC(=O)c6cc(NC(=O)c7nccn7C)cn6C)cn5C)cn4C)cn3C)CC1)c1nnc(C)n1-2 [Compound 163], which EC50 is on record?
**A.** Its EC50 is < 100 nM.

**Q.** For Cc1sc2c(c1C)C(c1ccc(Cl)cc1)=N[C@@H](CC(=O)N1CCC(C#CC#CCNC(=O)CCNC(=O)c3nc(NC(=O)CCNC(=O)c4cc(NC(=O)c5nc(NC(=O)CCNC(=O)c6cc(NC(=O)c7nccn7C)cn6C)cn5C)cn4C)cn3C)CC1)c1nnc(C)n1-2 [Compound 164], which EC50 is on record?
**A.** The EC50 was > 500 nM.

**Q.** Cc1cc(F)cc(C)c1Oc1ccc(C(C)(C)O)cc1-c1cn(C)c(=O)c2[nH]c(C(=O)N3CCN(CC4CCN(CCOCCOCCOCCOCCOCCOCCNC(=O)CCNC(=O)c5nc(NC(=O)CCNC(=O)c6cc(NC(=O)c7nc(NC(=O)CCNC(=O)c8cc(NC(=O)c9nccn9C)cn8C)cn7C)cn6C)cn5C)CC4)CC3)cc12 [Compound 167] was tested. Which EC50 did it give?
**A.** Its EC50 is > 500 nM.

**Q.** Which EC50 does the source give for Cc1cc(F)cc(C)c1Oc1ccc(C(C)(C)O)cc1-c1cn(C)c(=O)c2[nH]c(C(=O)N3CCC(CN4CCN(CCOCCOCCOCCOCCOCCOCCNC(=O)CCNC(=O)c5nc(NC(=O)CCNC(=O)c6cc(NC(=O)c7nc(NC(=O)CCNC(=O)c8cc(NC(=O)c9nccn9C)cn8C)cn7C)cn6C)cn5C)CC4)CC3)cc12 [Compound 168] here?
**A.** The EC50 was 100 to 500 nM.

**Q.** With Cc1cc(F)cc(C)c1Oc1ccc(C(C)(C)O)cc1-c1cn(C)c(=O)c2[nH]c(C(=O)N3CCN(C4CCN(CCOCCOCCOCCOCCC(=O)NCCCN(CCCNC(=O)CCNC(=O)c5nc(NC(=O)CCNC(=O)c6cc(NC(=O)c7nc(NC(=O)CCNC(=O)c8cc(NC(=O)c9nccn9C)cn8C)cn7C)cn6C)cn5C)CC(F)(F)F)CC4)CC3)cc12 [Compound 169] as the molecule, how does the EC50 read?
**A.** The EC50 was 100 to 500 nM.

**Q.** For Cc1cc(F)cc(C)c1Oc1ccc(C(C)(C)O)cc1-c1cn(C)c(=O)c2[nH]c(C(=O)N3CCC(N4CCN(CCOCCOCCOCCOCCC(=O)NCCCN(CCCNC(=O)CCNC(=O)c5nc(NC(=O)CCNC(=O)c6cc(NC(=O)c7nc(NC(=O)CCNC(=O)c8cc(NC(=O)c9nccn9C)cn8C)cn7C)cn6C)cn5C)CC(F)(F)F)CC4)CC3)cc12 [Compound 170], which EC50 is on record?
**A.** The EC50 was > 500 nM.

**Q.** With Cc1cc(F)cc(C)c1Oc1ccc(C(C)(C)O)cc1-c1cn(C)c(=O)c2[nH]c(C(=O)NC3CCN(CC#CC#CC4CCN(CCOCCOCCOCCOCCOCCOCCOCCNC(=O)CCNC(=O)c5nc(NC(=O)CCNC(=O)c6cc(NC(=O)c7nc(NC(=O)CCNC(=O)c8cc(NC(=O)c9nccn9C)cn8C)cn7C)cn6C)cn5C)CC4)CC3)cc12 [Compound 175] as the molecule, how does the EC50 read?
**A.** The EC50 was < 100 nM.

**Q.** How did the EC50 turn out when Cc1cc(F)cc(C)c1Oc1ccc(C(C)(C)O)cc1-c1cn(C)c(=O)c2[nH]c(C(=O)NC3CCN(CC#CC#CC4CCN(CCOCCOCCNC(=O)CCNC(=O)c5nc(NC(=O)CCNC(=O)c6cc(NC(=O)c7nc(NC(=O)CCNC(=O)c8cc(NC(=O)c9nccn9C)cn8C)cn7C)cn6C)cn5C)CC4)CC3)cc12 [Compound 176] was run?
**A.** Its EC50 is < 100 nM.

**Q.** With Cc1cc(F)cc(C)c1Oc1ccc(C(C)(C)O)cc1-c1cn(C)c(=O)c2[nH]c(C(=O)Nc3ccc(OCCOCCOCCOCCOCCOCCOCCOCCOCCOCCNC(=O)CCNC(=O)c4nc(NC(=O)CCNC(=O)c5cc(NC(=O)c6nc(NC(=O)CCNC(=O)c7cc(NC(=O)c8nccn8C)cn7C)cn6C)cn5C)cn4C)cc3)cc12 [Compound 195] as the molecule, how does the EC50 read?
**A.** The EC50 was < 100 nM.
